From patent US10137099B2, “Activation of AMP-protein activated kinase by oxaloacetate compounds” (priority 2010, dated 2018)
Read-outs that look alike come from different tables or passages of the source.

Assays:
[1] = Hydrated/keto/enol composition in water; type: physicochemical; settings: pH 6.9 (oxaloacetic acid), Na-OAA dissolved in water
Text: The oxaloacetate can be in three forms depending on the pH of the solution. At low pH (<1.5) and low temperature (<4 degrees C.) oxaloacetate hydrates. […] The hydrated form is mostly converted once it enters the higher pH of the body outside of the intestinal tract to the keto and enol form. […] Enol-oxaloacetate is convert to keto-oxaloacetate with the enzyme enol-keto tautomerase, a ubiquitous enzyme throughout the human body.
(§1) The keto-oxaloacetate decarboxylates quickly to pyruvate. As the keto-oxaloacetate form disappears due to decarboxylation, the enol and hydrated form convert to keto-oxaloacetate, and then also decarboxylate into carbon dioxide and pyruvate, until all the oxaloacetate is consumed. Note that neither of the byproducts of oxaloacetate decarboxylation, carbon dioxide and pyruvate, are effective in activating AMPK.
(§2) The keto-oxaloacetate decarboxylates quickly, followed by enol conversion to keto form and further decarboxylation. […] Na-OAA has no shelf life, and is not available commercially.

[2] = Stability and shelf life of oxaloacetic acid forms; settings: for stability / shelf life at room temperature: kept dry, reduced water content
Text: as §1, §2
There is an energy gap between the enol and keto form which is bridged when the compounds are exposed to water, however, this same energy gap prevents the conversion of the enol to keto form when the product is kept dry. Once there is a conversion to the keto form, decarboxylation can spontaneously occur at temperatures above the freezing point of water. […] Drying effectiveness can be increased by increasing the drying time, drying under vacuum, by using anhydrous washes of isopropyl alcohol or ethyl alcohol to absorb the remaining water (and then evaporating the alcohol), or by performing multiple washes with hexane or non-water soluble solvent to physically remove the water, typically after an alcohol wash. The non-water soluble solvent would then be evaporated off. […] Hexane is a residual solvent in many commercial food preparations including decaffeinated coffee, and is not toxic in small quantities. Alternatively, the final wash can be performed with liquefied propane, liquefied butane, ethyl acetate, ethane, carbon dioxide, or nitrous oxide to reduce the water content.
Biochem., vol. 26, pp. 418-421, 1950, also in Heidelberger; “The Synthesis of Oxalacetic Acid-1-C14 and Orotic Acid-6-C14”, Biochem. Prepn. 3, 59 (1953) pp 4704-4706.

[3] = Example 1: non-diabetic subject, blood panel after 6 months; type: in vivo, human
Method: A non-diabetic subject is given 100 mg anhydrous enol-oxaloacetic acid in solid form for a period of 6 months to reduce blood triglycerides and glucose levels. AMPK is activated and the treatment is effective.

[4] = Example 2: fasting blood glucose tracked for several weeks; type: in vivo, human; settings: 100 mg daily
Text: The amplitude of the patient's swings in fasting glucose decrease by 55% due to improved glucose homeostasis. AMPK is activated and overall fasting glucose levels drop by 8%. The data is shown in Graph 3.

[5] = Example 5: blood pressure in patient with hypertension; type: in vivo, human; settings: 100 mg daily for three months
Text: A patient is diagnosed with hypertension. […] The patient's blood pressure decreases by 10%.

[6] = Example 4: maintenance of weight loss after diet; type: in vivo, human; settings: 100 mg daily
Text: A patient successfully loses 24 pounds.

[7] = Example 3: body weight of obese patient over three months; type: in vivo, human
Text: AMPK is activated and the patient drops in weight from 258 to 234 pounds in a three month period. The patient is no longer obese.

ob/ob and db/db mice = settings: 8 day administration; cited from earlier work
C. elegans = C. elegans lifespan with functional and non-functional AMPK; type: in vivo, Caenorhabditis elegans; settings: for lifespan of worms with non-functional alpha AMPK subunit: dysfunctional aak-2 subunit; for lifespan of worms with non-functional alpha AMPK subunit / increase of lifespan: 8 mM oxaloacetate; for increase of lifespan: worms with functional FOXO/DAF-16 and AMPK, p<0.001
Method: I have assayed the CR mimetic OAA for AMPK activation by using the worm C. elegans containing a non-functional alpha AMPK subunit, and have compared lifespan with and without the functional AMPK subunit. […] Graph 1 is the Kaplan-Meyer survival curves for worms with functional and non-functional AMPK showing the difference in lifespan.
AMPK activation is necessary to increase lifespan of C. elegans when exposed to 8 mM concentrations of oxaloacetate. The increase in lifespan averages approximately 25%, p<0.001.

[8] = Glucose related effects of supplementation in humans; type: in vivo, human; settings: non-diabetic patients
Text: Glucose related effects in humans have measured an 8 to 10% drop in fasting glucose levels in non-diabetic patients, a drop in triglyceride levels by 10% and a 55% reduction in the amplitude of fasting blood glucose levels.

[9] = system: human A549 lung cancer tissue; settings: uM levels, contact solution of 76 uM; not within normal tissue; cancer tissue unable to reproduce for six weeks; cited from earlier work
in vivo = settings: rat
Text: (§3) I have investigated the toxicity of OAA in an acute study and two chronic studies.
(§4) The dose ratio between toxic and therapeutic effects is the therapeutic index and it can be expressed as the ratio LD50/ED50.

rats = settings: cited from earlier work
mouse = system: mouse
Text: as §3, §4

[10] = 21 diabetic patients, cited from earlier work
[11] = Removal of orally consumed oxaloacetic acid from blood stream into cells; type: in vivo, human
Method: The oxaloacetic acid is converted to the ionic form oxaloactate in the digestive tract, and is then absorbed into the body and is distributed throughout the body via the bloodstream. […] At time 0, the amount detected was 0 ug/100 ml blood, at time 30 minutes 0 ug/100 ml blood, and at time 60 minutes ranged from […] blood. […] Within the cells the oxaloacetate reacts into L-malate as it encounters the enzyme malate dehydrogenase (MDH). MDH is ubiquitous in human cells, and the conversion of oxaloacetate to malate is very energetically favorable (the Gibbs Free Energy, delta G, is highly negative (−29.7) indicating the reaction is very favorable to proceed). As oxaloacetate is converted to malate, NADH is converted to NAD+. The resulting increase in the NAD+/NADH ratio leads to the phosphorylation (activation) of AMPK (Rafaeloff-Phail R, Ding L, Conner L, et al. “Biochemical regulation of mammalian AMP-activated protein Kinase activity by NAD and NADH”. J Biol Chem 2004; 279: 52934-9). AMPK serves to stimulate glucose uptake into the skeltal tissues and thereby reduces glucose levels. The immediate reduction is best seen with a glucose tolerance test in individuals that have defective leptin signaling (including overweight and obese persons) that are fasting. […]

[12] = Blood-brain barrier penetration
Text: AMPK activation has been associated with reduced Alzheimer risk and potentially with Alzheimer's treatment (Richter, Erik and Ruderman, Neil, “AMPK and the biochemistry of exercise: implications for human health and disease” Biochem. J. (2009) 418, 261-275). Thus OAA may be used for reducing the risk of Alzheimer's disease and for treatment of the same.

older mice = assay: Chronic eighteen-month study in older mice; type: in vivo; settings: 380 mg OAA/kg of mouse, eighteen months
[13] = Decrease (Improvement), February to August 2007

O=C([O-])CC(=O)C(=O)O.[Na+] [sodium oxaloacetate]
fraction in the enol form [1]: 11% | fraction in the hydrated form [1]: 5% | fraction in the keto form [1]: 84% | shelf life [2]: no shelf life

O=C(O)CC(=O)C(=O)O [anhydrous enol-oxaloacetic acid]
Glucose Fasting, August 2007 ([3]; 100 mg daily for 6 months, February 2007 baseline 97): 89 mg/dL | Glucose Fasting % Change [3, 13]: 8.25% | Triglyceride % Change [3, 13]: 8.93% | Creatinine, August 2007 ([3]; after 6 months, baseline 1): 0.9 mg/dL | TSH, August 2007 ([3]; after 6 months, baseline 1.41): 1.32 uIU/ml | Albumin, August 2007 ([3]; after 6 months, baseline 4.4): 4.2 g/dL | K (Potassium), August 2007 ([3]; after 6 months, baseline 4.6): 4.5 mEq/L | Bun-Ser, August 2007 ([3]; after 6 months, baseline 14): 12 mg/dL | AST (SGOT), August 2007 ([3]; after 6 months, baseline 16): 15 IU/L | Lipase, August 2007 ([3]; after 6 months, baseline 17): 19 u/l | CO2 (Carbon Dioxide), August 2007 ([3]; after 6 months, baseline 27): 29 mEq/L | ALK P'TASE, August 2007 ([3]; after 6 months, baseline 36): 37 IU/L | HDL Ser Cholesterol, August 2007 ([3]; after 6 months, baseline 42): 42 mg/dL | Cl (Chloride), August 2007 ([3]; after 6 months, baseline 110): 108 mEq/L | Triglyceride, August 2007 ([3]; after 6 months, baseline 112): 102 mg/dL | LDL Cholesterol, August 2007 ([3]; after 6 months, baseline 138): 138 mg/dL | Na (Sodium), August 2007 ([3]; after 6 months, baseline 144): 143 mEq/L | Total Cholesterol, August 2007 ([3]; after 6 months, baseline 202): 203 mg/dL | decrease of amplitude of swings in fasting glucose [4]: 55% | drop of overall fasting glucose levels [4]: 8% | decrease of blood pressure [5]: 10% | stability / shelf life at room temperature [2]: exceeding one year | stability / shelf life at room temperature ([2]; listed as reduced water content oxaloacetate form): exceed one year | product decay ([2]; room temperatures, shelf life exceeding one year): less than 1% | liver genes Acaa1, Cnbp, Fasn, Idil, Ndufabl, Pcx, Sc5d (human homologues) [6]: down regulates | regain of weight lost ([6]; one-year period after the diet, 24 pounds lost): does not regain the weight lost | Ending Weight May 2007 ([7]; 100 mg daily, three month period, starting weight 258): 234 pounds | Percent Reduction of weight ([7]; February 2007 to May 2007): 9.3%

NC(=O)c1ncn([C@@H]2O[C@H](CO)[C@@H](O)[C@H]2O)c1N [AICAR, 5-Aminoimidazole-4-darboxamide ribonucleoside]
reduction of blood glucose (ob/ob and db/db mice): 35%

O=C(O)CC(O)(O)C(=O)O [hydrated form of oxaloacetic acid]
shelf life [2]: no shelf life | time of stability [2]: less than one-week's time

O=C(O)CC(=O)C(=O)O [oxaloacetic acid]
lifespan of worms with non-functional alpha AMPK subunit (C. elegans): no increase in lifespan | lifespan of worms with non-functional alpha AMPK subunit (C. elegans; listed as OAA): will not increase the lifespan | lifespan of wild type worms subjected to calorie restriction (C. elegans; functional AMPK, calorie restriction plus OAA supplementation): do not have their lifespan increased | increase of lifespan (C. elegans): approximately 25% | increase of lifespan (C. elegans; listed as OAA): 25% | drop in triglyceride levels [8]: 10% | reduction in the amplitude of fasting blood glucose levels [8]: 55% | effect on cancer tissue [9]: differential massive debris within the cancer tissue | NOAEL at 90 days (in vivo): 500 mg/kg | pancreas findings at 41 mg/kg of body weight (rats; 41 mg/kg): proliferation and hyperplasia of the islet cells | pancreas findings at 83 mg/kg of body weight (rats; 83 mg/kg): caused changes in pancreatic islets | LD50 (mouse; acute study, taken with food): more than 5,000 mg OAA/Kg of mouse | LD50 (mouse; mouse, in vivo): above 5 g/kg of body weight | side effects ([10]; 100 mg to 1,000 mg (2-10 mg/kg)): no negative side effects | blood glucose levels ([10]; 100 mg to 1,000 mg): dropped significantly in all patents | patients in whom urine glucose levels dropped ([10]; 100 mg to 1,000 mg): 19 out of the 21 | time until most is moved from the blood stream into individual cells [11]: ≤ 120 min | blood-brain barrier penetration [12]: can penetrate the blood-brain barrier | lived longer than the control group (older mice): 25% | fraction in the enol form [1]: 11% | fraction in the hydrated form [1]: 5% | fraction in the keto form [1]: 84% | time to decarboxylation ([2]; divalent cations in the fluid): within a day
